Assay results: patent publication EP0462071B1, “Pharmaceutical resorption-improved somatostatin compositions, their preparation and use” (SANDOZ LTD., priority 1990, dated 1991)
Read-outs that look alike come from different tables or passages of the source.

Experiment: Resorption of octreotide after injection of a solution into the jejunum of anaesthetised rats; plasma concentration by radio-immunoassay
Assay type: in vivo, Wistar rats
Conditions: for AUC(0-t): area under the curve over 2 hours
Description: Wistar rats (about 300 g body weight) were fasted for 12 hours and anaesthetised with urethane (2 doses of […] i.p.). The abdomen was opened to gain access to the gastrointestinal tract in particular the jejunum. A solution of the pharmaceutical composition according to the invention or of the somatostatin as a control or of a somatostatin in combination with sodium taurocholate, a resorption enhancer, known to be used in combination with e.g. salmon calcitonin or insulin for an improved resorption through the mucous membrane of the gastrointestinal tract, was injected into the gastrointestinal tract, e.g. the jejunum. Blood samples (e.g. 1 ml) are obtained 20 minutes, and 1 and 2 hours after administration from the vena cava. The blood is centrifuged and the somatostatin concentration in the plasma determined in conventional manner using a radio-immunoassay method.
The relative bioavailability (AUCo² = Area under the curve over 2 hours) is determined and expressed in the following table, in which the AUC is expressed as ng/ml.hour and Cmax as ng/ml: TABLE A

For C[C@@H](O)[C@@H]1NC(=O)[C@H](CCCCN)NC(=O)[C@@H](Cc2c[nH]c3ccccc23)NC(=O)[C@H](Cc2ccccc2)NC(=O)[C@@H](NC(=O)[C@H](N)Cc2ccccc2)CSSC[C@@H](C(=O)N[C@H](CO)[C@@H](C)O)NC1=O [100 microg. of octreotide (reference), Octreotide], the Cmax (Wistar, rat, 100 microg., octreotide in plasma, 0.5 ml of NaCl (0.9 % W/V) solution injected into the jejunum, sem in the next column) was 2.23 ng/mL, the AUC(0-t) (Wistar, rat, 100 microg., octreotide in plasma, 0.5 ml of NaCl (0.9 % W/V) solution injected into the jejunum, blood samples at 20 minutes, 1 and 2 hours, read-out: AUCo² median) was 2.06 ng·h/mL and the AUC(0-t) (Wistar, rat, plasma, 100 microg., octreotide in plasma, 0.5 ml of NaCl (0.9 % W/V) solution injected into the jejunum, sem in the next column, read-out: AUCo² mean) was 2.26 ng·h/mL. For the same compound, the Bioavail. rel. % (relative to 100 microg. of octreotide alone (reference = 100 %), values correspond to the ratio of the median AUCo²) was 100%.
